Tests used:
[1] = system: RKO (RKOp27) human colon adenocarcinoma cells; assay: Alamar Blue cell viability assay, anti-proliferative/cytotoxic activity on proliferating RKOp27 cells; assay type: cell-based; details: absence of Ponasterone A, 72 hours incubation, read-out: IC50 RKO p27 proliferating
Outline: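 RKOp27 subclone of RKO cells, 4000/well in DMEM with 10% FCS, was treated 24 h after seeding with semi-log compound dilutions in quadruplicate for 72 h at 37 °C, 5% CO2. Alamar Blue fluorescence (ex 544/em 590 nm) was read as % viability of untreated cells, and IC50 was taken from concentration-effect curves.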

[2] = system: RKO colon adenocarcinoma cells (RKOp27) arrested by expression of ectopic p27Kip1; assay: Alamar Blue cell viability assay on RKOp27 cells arrested by Ponasterone A-induced p27Kip1 (cell cycle specific mode of action); assay type: cell-based; details: Homo sapiens, RKOp27, 72 h, cells arrested by p27Kip1 induced with 10 μM Ponasterone A, 72 hours incubation, read-out: IC50 RKO p27 arrested
Outline: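 Viability measured by Alamar Blue fluorescence (ex 544, em 590 nm) after 72 h, 37 °C compound exposure in quadruplicate, normalized to untreated cells as 100%. Cells were p27Kip1-arrested RKOp27, induced with 10 μM Ponasterone A at seeding; compound added 24 h later.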

Row | SMILES | IC50 [2] | IC50 [1]
1 | CC(C)(C)OC(=O)N1CCc2c(sc(NC(=O)/C=C/c3ccccc3)c2C#N)C1 [Example 2, N-(6-tert-Butoxycarbonyl-3-cyano-4,5,6,7-tetrahydro-thieno[2,3-c]pyridin-2-yl)-3-phenyl-acrylamide] | > 100 µM | ≤ 2 µM
2 | CCOC(=O)COC(=O)N1CCc2c(sc(NC(=O)/C=C/c3cccnc3)c2C#N)C1 [Example 161, 3-Cyano-2-((E)-3-pyridin-3-yl-allanoylamino)-4,7-dihydro-5H-thieno[2,3-c]pyridine-6-carboxylic acid ethoxycarbonylmethyl ester] | ≥ 100 µM | ≤ 2 µM
3 | N#Cc1c(NC(=O)/C=C/c2ccccc2)sc2c1CCN(C(=O)Cc1ccccn1)C2 [Example 174, (E)-N-[3-Cyano-6-(2-pyridin-2-yl-ethanoyl)-4,5,6,7-tetrahydro-thieno[2,3-c]pyridin-2-yl]-3-phenyl-acrylamide] | ≥ 100 µM | ≤ 2 µM
4 | CCOC(=O)N1CCc2c(sc(NC(=O)/C=C/c3ccccc3OCC)c2C#N)C1 [Example 62, 3-Cyano-2-[(E)-3-(2-ethoxy-phenyl)-allanoylamino]-4,7-dihydro-5H-thieno[2,3-c]pyridine-6-carboxylic acid ethyl ester] | ≥ 100 µM | ≤ 2 µM
5 | COCCOCC(=O)N1CCc2c(sc(NC(=O)/C=C/c3ccco3)c2C#N)C1 [Example 226, (E)-N-{3-Cyano-6-[2-(2-methoxy-ethoxy)ethanoyl]-4,5,6,7-tetrahydro-thieno[2,3-c]pyridin-2-yl}-3-furan-2-yl-acrylamide] | ≥ 100 µM | ≤ 2 µM
6 | CCOc1ccccc1/C=C/C(=O)Nc1sc2c(c1C#N)CCN(C(=O)Cc1ccccn1)C2 [Example 218, (E)-N-[3-Cyano-6-(2-pyridin-2-yl-ethanoyl)-4,5,6,7-tetrahydro-thieno[2,3-c]pyridin-2-yl]-3-(2-ethoxy-phenyl)-acrylamide] | ≥ 100 µM | ≤ 2 µM
7 | COCCC(=O)N1CCc2c(sc(NC(=O)/C=C/c3ccccc3OC)c2C#N)C1 [Example 211, (E)-N-[3-Cyano-6-(3-methoxy-propanoyl)-4,5,6,7-tetrahydro-thieno[2,3-c]pyridin-2-yl]-3-(2-methoxy-phenyl)-acrylamide] | ≥ 100 µM | ≤ 2 µM
8 | CCCC(=O)N1CCc2c(sc(NC(=O)/C=C/c3cccnc3)c2C#N)C1 [Example 39, (E)-N-(6-Butyryl-3-cyano-4,5,6,7-tetrahydro-thieno[2,3-c]pyridin-2-yl)-3-pyridin-3-yl-acrylamide] | > 100 µM | ≤ 2 µM
9 | CC(C)(C)OC(=O)N1CCc2c(sc(NC(=O)/C=C/c3ccoc3)c2C#N)C1 [Example 55, 3-Cyano-2-((E)-3-furan-3-yl-allanoylamino)-4,7-dihydro-5H-thieno[2,3-c]pyridine-6-carboxylic acid tert-butyl ester] | ≥ 100 µM | ≤ 2 µM
10 | N#Cc1c(NC(=O)/C=C/c2cccnc2)sc2c1CCN(C(=O)CCc1nccs1)C2 [Example 198, (E)-N-[3-Cyano-6-(3-thiazol-2-yl-propanoyl)-4,5,6,7-tetrahydro-thieno[2,3-c]pyridin-2-yl]-3-pyridin-3-yl-acrylamide] | ≥ 100 µM | ≤ 2 µM
11 | CCOC(=O)N1CCc2c(sc(NC(=O)/C=C/c3ccc(OC)cc3F)c2C#N)C1 [Example 70, 3-Cyano-2-[(E)-3-(2-fluoro-4-methoxy-phenyl)-allanoylamino]β4,7-dihydro-5H-thieno[2,3-c]pyridine-6-carboxylic acid ethyl ester] | ≥ 100 µM | ≤ 2 µM
12 | CCOc1ccccc1/C=C/C(=O)Nc1sc2c(c1C#N)CCN(C(=O)OCc1cccnc1)C2 [Example 237, 3-Cyano-2-[(E)-3-(2-ethoxy-phenyl)-allanoylamino]-4,7-dihydro-5H-thieno[2,3-c]pyridine-6-carboxylic acid pyridin-3-ylmethyl ester] | ≥ 100 µM | ≤ 2 µM
13 | N#Cc1c(NC(=O)/C=C/c2ccccc2)sc2c1CCN(C(=O)OCCCc1cccnc1)C2 [Example 125, 3-Cyano-2-((E)-3-phenyl-allanoylamino)-4,7-dihydro-5H-thieno[2,3-c]pyridine-6-carboxylic acid 3-pyridin-3-yl-propyl ester] | ≥ 100 µM | ≤ 2 µM
14 | CCOC(=O)N1CCc2c(sc(NC(=O)/C=C/c3nn(C)cc3Cl)c2C#N)C1 [Example 90, 2-[(E)-3-(4-Chloro-1-methyl-1H-pyrazol-3-yl)-allanoylamino]-3-cyano-4,7-dihydro-5H-thieno[2,3-c]pyridine-6-carboxylic acid ethyl ester] | ≥ 100 µM | ≤ 2 µM

More lines, main results first:

Row | IC50 [2] | SMILES | IC50 [1]
15 | > 100 µM | CCOC(=O)N1CCc2c(sc(NC(=O)/C=C/c3ccoc3)c2C#N)C1 [Example 11, 3-Cyano-2-((E)-3-furan-3-yl-allanoylamino)-4,7-dihydro-5H-thieno[2,3-c]pyridine-6-carboxylic acid ethyl ester] | ≤ 2 µM
16 | ≥ 100 µM | COCC(=O)N1CCc2c(sc(NC(=O)/C=C/c3ccccc3)c2C#N)C1 [Example 181, (E)-N-[3-Cyano-6-(2-methoxy-ethanoyl)-4,5,6,7-tetrahydro-thieno[2,3-c]pyridin-2-yl]-3-phenyl-acrylamide] | ≤ 2 µM
17 | ≥ 100 µM | N#Cc1c(NC(=O)/C=C/c2ccccc2)sc2c1CCN(C(=O)OCCN1CCCC1)C2 [Example 114] | ≤ 2 µM
18 | ≥ 100 µM | COc1ccc(CCOC(=O)N2CCc3c(sc(NC(=O)/C=C/c4cccnc4)c3C#N)C2)cc1 [Example 146, 3-Cyano-2-((E)-3-pyridin-3-yl-allanoylamino)-4,7-dihydro-5H-thieno[2,3-c]pyridine-6-carboxylic acid 2-(4-methoxy-phenyl)-ethyl ester] | ≤ 2 µM
19 | ≥ 50 µM | N#Cc1c(NC(=O)/C=C/c2cccnc2)sc2c1CCN(C(=O)OCCCc1cccnc1)C2 [Example 157, 3-Cyano-2-((E)-3-pyridin-3-yl-allanoylamino)-4,7-dihydro-5H-thieno[2,3-c]pyridine-6-carboxylic acid 3-pyridin-3-yl-propyl ester] | ≤ 0.5 µM
20 | ≥ 100 µM | CCOC(=O)N1CCc2c(sc(NC(=O)/C=C/c3c(F)ccc(F)c3F)c2C#N)C1 [Example 68, 3-Cyano-2-[(E)-3-(2,3,6-trifluoro-phenyl)-allanoylamino]-4,7-dihydro-5H-thieno[2,3-c]pyridine-6-carboxylic acid ethyl ester] | ≤ 2 µM
21 | ≥ 100 µM | CCSC(=O)N1CCc2c(sc(NC(=O)/C=C/c3ccccc3OC)c2C#N)C1 [Example 50, 3-Cyano-2-[(E)-3-(2-methoxy-phenyl)-allanoylamino]-4,7-dihydro-5H-thieno[2,3-c]pyridine-6-carbothioic acid S-ethyl ester] | ≤ 2 µM
22 | ≥ 100 µM | CCOC(=O)N1CCc2c(sc(NC(=O)/C=C/c3c(F)cccc3Cl)c2C#N)C1 [Example 67, 2-[(E)-3-(2-Chloro-6-fluoro-phenyl)-allanoylamino]-cyano-4,7-dihydro-5H-thieno[2,3-c]pyridine-6-carboxylic acid ethyl ester] | ≤ 2 µM
23 | ≥ 50 µM | CCOC(=O)N1CCc2c(sc(NC(=O)/C=C/c3ccccc3OC(F)(F)F)c2C#N)C1 [Example 233, 3-Cyano-2-[(E)-3-(2-trifluoromethoxy-phenyl)-allanoylamino]-4,7-dihydro-5H-thieno[2,3-c]pyridine-6-carboxylic acid ethyl ester] | ≤ 0.5 µM
24 | ≥ 100 µM | COCCC(=O)N1CCc2c(sc(NC(=O)/C=C/c3cccnc3)c2C#N)C1 [Example 195, (E)-N-[3-Cyano-6-(3-methoxy-propanoyl)-4,5,6,7-tetrahydro-thieno[2,3-c]pyridin-2-yl]-3-pyridin-3-yl-acrylamide] | ≤ 2 µM
25 | ≥ 100 µM | CCOc1ccccc1/C=C/C(=O)Nc1sc2c(c1C#N)CCN(C(=O)OCc1ccccn1)C2 [Example 236, 3-Cyano-2-[(E)-3-(2-ethoxy-phenyl)-allanoylamino]-4,7-dihydro-5H-thieno[2,3-c]pyridin-6-carboxylic acid pyridin-2-ylmethyl ester] | ≤ 2 µM
26 | > 100 µM | CCOC(=O)N1CCc2c(sc(NC(=O)/C=C/c3ccccc3Cl)c2C#N)C1 [Example 4, N-(6-Ethoxycarbonyl-3-cyano-4,5,6,7-tetrahydro-thieno[2,3-c]pyridin-2-yl)-3-(2-chlorophenyl)-acrylamide] | ≤ 2 µM
27 | ≥ 50 µM | N#Cc1c(NC(=O)/C=C/c2ccccc2)sc2c1CCN(C(=O)OCCCc1ccccn1)C2 [Example 124, 3-Cyano-2-((E)-3-phenyl-allanoylamino)-4,7-dihydro-5H-thieno[2,3-c]pyridin-6-carboxylic acid 3-pyridin-2-yl-propyl ester] | ≤ 0.5 µM
28 | ≥ 100 µM | CCOC(=O)N1CCc2c(sc(NC(=O)/C=C/c3ccc(Cl)s3)c2C#N)C1 [Example 72, 2-[(E)-3-(5-Chloro-thiophen-2-yl)-allanoylamino]-3-cyano-4,7-dihydro-5H-thieno[2,3-c]pyridine-6-carboxylic acid ethyl ester] | ≤ 2 µM
29 | ≥ 100 µM | CCOC(=O)N1CCc2c(sc(NC(=O)/C=C/c3ccc(Cl)cc3F)c2C#N)C1 [Example 59, 2-[(E)-3-(4-Chloro-2-fluoro-phenyl)-allanoylamino]-3-cyano-4,7-dihydro-5H-thieno[2,3-c]pyridine-6-carboxylic acid ethyl ester] | ≤ 2 µM
